From US20240101548A1, “HYDROXAMATE COMPOUND, PREPARATION METHOD THEREFOR AND APPLICATION THEREOF” (SHENZHEN CHIPSCREEN BIOSCIENCES CO., LTD., priority 2020, published 2024) come the findings set out here.

Read-outs that look alike come from different tables or passages of the source.

For assay [1], the system named is EPO-induced JAK2 signal pathway. In words: EPO-induced proliferation of UT-7 cells (JAK2 signal). The conditions noted are these: UT-7 cell proliferation, EPO 10 ng/mL, 72 hours, read-out: Inhibition activity IC50 on EPO-induced JAK2 signal pathway. It is filed as cell-based, human. The procedure, abridged:
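UT-7 cells (15000/well) stimulated with 10 ng/mL human recombinant EPO plus compound at final 0, 100, 1000 or 10000 nM, 72 h at 37° C., 5% CO2. Proliferation by alamarBlue fluorescence (Ex530/Em590); inhibition normalised to no-cytokine/no-compound (0) and EPO-only (100) wells, […] derived from dose-inhibition.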

The subject of assay [2] is IL-2-induced JAK1/JAK3 signal pathway. As to the kind of experiment: IL-2-induced proliferation of KHYG-1 cells (JAK1/JAK3 signal). The conditions noted are these: KHYG-1 cell proliferation, IL-2 10 ng/mL, 72 hours, read-out: Inhibition activity IC50 on IL-2-induced JAK1/JAK3 signal pathway. The format is cell-based, human. The procedure, abridged:
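KHYG-1 NK lymphoma cells were cultured with IL-2 and test compound at various doses for 72 h at 37 °C and 5% CO2, and proliferation was read with alamarBlue fluorescence. Inhibition was normalized to wells without compound or cytokine (0%) and IL-2 wells without compound (100%), and C50 was derived from the dose-inhibition data.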

A further assay has as its target TYK2 JH2 domain (Homo sapiens (Human), UniProt P29597). In words: TYK2 JH2 domain FRET tracer assay. It is filed as binding. The conditions noted are these: FRET 665/615 nm; read-out: Inhibition activity IC50 on TYK2 JH2 domain. As for the experimental part: Compound of the present invention formulated into different concentrations (series 3 times dilutions, started from 60 μM, 11 concentrations in total) was added to 384-well plate, followed by 5 μL of enzyme (i.e., TYK2 JH2 domain), Tb antibody (Cisbio) and tracer. The mixture was incubated at 25° C. for 60 min and left at 4° C. overnight.

For assay [3], the system named is IL-10-induced JAK1/TYK2 signal pathway. As to the kind of experiment: IL-10-induced JAK1/TYK2 signal pathway STAT3-Luc reporter gene assay in U2OS cells. It is filed as cell-based, human. The conditions noted are these: U2OS cells, STAT3-Luc reporter, IL-10 10 ng/mL, read-out: Half inhibition dose (IC50) on IL-10-induced JAK1/TYK2 signal pathway. The procedure, abridged: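 U2OS cells co-transfected with IL-10R1-EGFP and STAT3-luciferase reporter plasmids; after 24 h, compound added (0–300 nM) for 6 h before 10 ng/mL human IL-10, then 24 h culture. Luciferase signal normalised to GFP for transfection efficiency; IC50 from inhibition rates.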
A general note: In a reporter assay the amount or activity of a reporter protein is the signal.

Chain of TYK2 JH2 domain (P29597 589-875): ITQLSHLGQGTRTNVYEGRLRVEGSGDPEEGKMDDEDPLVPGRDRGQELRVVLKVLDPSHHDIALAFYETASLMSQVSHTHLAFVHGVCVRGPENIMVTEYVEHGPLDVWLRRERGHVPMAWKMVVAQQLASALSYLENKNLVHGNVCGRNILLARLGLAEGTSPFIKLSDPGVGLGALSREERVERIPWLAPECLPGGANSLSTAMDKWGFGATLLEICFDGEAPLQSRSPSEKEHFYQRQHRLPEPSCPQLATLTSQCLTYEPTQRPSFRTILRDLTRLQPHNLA

`CCONC(=O)c1cnc(Nc2ccnc(C)n2)cc1Nc1ccc(C2CC2)cc1N(C)S(C)(=O)=O` [Example 192, 4-((4-cyclopropyl-2-(N-methylmethanesulfonamido)phenyl)amino)-N-ethoxy-6-((2-methylpyrimidin-4-yl)amino)nicotinamide]: the IC50 in assay [1] (Homo sapiens, UT7) was > 10000 nM; in assay [2] (Homo sapiens), > 10000 nM; on TYK2 JH2 domain it was 0.08 nM; in assay [3] (Homo sapiens, U2OS), 0.458 nM.
In the case of `CONC(=O)c1cnc(NC(=O)C2CC2)cc1Nc1ccc(C2CC2)cc1N(C)S(C)(=O)=O` [Example 12, 6-(cyclopropylcarboxamido)-4-((4-cyclopropyl-2-(N-methylmethanesulfonamido)phenyl)amino)-N-methoxy nicotinamide], the IC50 was > 10000 nM in assay [1] (Homo sapiens, UT7); > 10000 nM in assay [2] (Homo sapiens); 0.961 nM in assay [3] (Homo sapiens).
For `CCONC(=O)c1cnc(Nc2cc(C)nc(C)n2)cc1Nc1ccc(C2CC2)cc1N(C)S(=O)(=O)C1CC1` [Example 189], the IC50 in assay [1] (Homo sapiens, UT7) was > 10000 nM; in assay [2] (Homo sapiens) it was > 10000 nM; in assay [3] (Homo sapiens, U2OS), 0.825 nM.
In the case of `CONC(=O)c1cnc(Nc2cc(C)nc(C)n2)cc1Nc1ccccc1N(C)S(C)(=O)=O` [Example 45], the IC50 in assay [1] (Homo sapiens, UT7) is > 10000 nM; in assay [2] (Homo sapiens), > 10000 nM; in assay [3] (Homo sapiens, U2OS), 0.855 nM.
Turning to `CCONC(=O)c1cnc(Nc2ncc(F)cc2F)cc1Nc1cc(F)cc(-c2ncn(C3CC3)n2)c1OC` [Example 244, 4-((3-(1-cyclopropyl-1H-1,2,4-triazol-3-yl)-5-fluoro-2-methoxyphenyl)amino)-6-((3,5-difluoropyridin-2-yl)amino)-N-ethoxy nicotinamide], the IC50 in assay [1] (Homo sapiens, UT7) is > 10000 nM; in assay [2] (Homo sapiens) it was > 10000 nM; in assay [3] (Homo sapiens, U2OS), 2.58 nM.
`CCONC(=O)c1cnc(Nc2cc(C)nc(C)n2)cc1Nc1cccc(-c2ncn(C)n2)c1OC` [Example 268, 6-((2,6-dimethylpyrimidin-4-yl)amino)-N-ethoxy-4-((2-methoxy-3-(1-methyl-1H-1,2,4-triazol-3-yl)phenyl)amino)nicotinamide]: the IC50 in assay [1] (Homo sapiens, UT7) was > 10000 nM; in assay [2] (Homo sapiens), > 10000 nM; in assay [3] (Homo sapiens, U2OS), 0.315 nM.
For `CCONC(=O)c1cnc(Nc2cccnn2)cc1Nc1ccc(Cl)cc1N(C)S(C)(=O)=O` [Example 151, 4-((4-chloro-2-(N-methylmethanesulfonamido)phenyl)amino)-N-ethoxy-6-(pyridazin-3-ylamino)nicotinamide], the IC50 was > 10000 nM in assay [1] (Homo sapiens, UT7); > 10000 nM in assay [2] (Homo sapiens); 2.07 nM in assay [3] (Homo sapiens, U2OS).
Turning to `CCONC(=O)c1cnc(Nc2ccc(C)nn2)cc1Nc1ccc(C2CC2)cc1N(C)S(C)(=O)=O` [Example 159, 4-((4-cyclopropyl-2-(N-methylmethanesulfonamido)phenyl)amino)-N-ethoxy-6-((6-methylpyridazin-3-yl)amino)nicotinamide], the IC50 in assay [1] (Homo sapiens, UT7) was > 10000 nM; in assay [2] (Homo sapiens), > 10000 nM; in assay [3] (Homo sapiens, U2OS) it was 0.907 nM.
In the case of `CCONC(=O)c1cnc(Nc2ccc(OC)cn2)cc1Nc1ccc(C2CC2)cc1N(C)S(C)(=O)=O` [Example 20, 4-((4-cyclopropyl-2-(N-methylmethanesulfonamido)phenyl)amino)-N-ethoxy-6-((5-methoxypyridin-2-yl)amino)nicotinamide], the IC50 in assay [1] (Homo sapiens, UT7) is > 10000 nM; in assay [2] (Homo sapiens), > 10000 nM; in assay [3] (Homo sapiens, U2OS), 0.955 nM.
`CCONC(=O)c1cnc(Nc2cnc(F)c(C)c2)cc1Nc1ccc(C2CC2)cc1N(C)S(C)(=O)=O` [Example 235, 4-((4-cyclopropyl-2-(N-methylmethanesulfonamido)phenyl)amino)-N-ethoxy-6-((6-fluoro-5-methylpyridin-3-yl)amino)nicotinamide]: the IC50 in assay [1] (Homo sapiens, UT7) was > 10000 nM; in assay [2] (Homo sapiens), > 10000 nM; in assay [3] (Homo sapiens, U2OS), 0.722 nM.
On to `CONC(=O)c1cnc(NC(=O)C2CC2)cc1Nc1ccc(C(F)(F)F)cc1N(C)S(C)(=O)=O` [Example 10, 6-(cyclopropylcarboxamido)-N-methoxy-4-((2-(N-methylmethanesulfonamido)-4-(trifluoromethyl)phenyl)amino)nicotinamide], for which the IC50 was > 10000 nM in assay [1] (Homo sapiens, UT7); > 10000 nM in assay [2] (Homo sapiens); 1.18 nM in assay [3] (Homo sapiens).
Take `CCONC(=O)c1cnc(Nc2ccnc(OC)n2)cc1Nc1ccc(C2CC2)cc1N(C)S(C)(=O)=O` [Example 179, 4-((4-cyclopropyl-2-(N-methylmethanesulfonamido)phenyl)amino)-N-ethoxy-6-((2-methoxypyrimidin-4-yl)amino)nicotinamide]: the IC50 was > 10000 nM in assay [1] (Homo sapiens, UT7); > 10000 nM in assay [2] (Homo sapiens); 1.31 nM in assay [3] (Homo sapiens, U2OS).
As for `CCONC(=O)c1cnc(Nc2cc(C)nc(C)n2)cc1Nc1ccc(C2CC2)cc1N(C)S(=O)(=O)CC` [Example 185], the IC50 in assay [1] (Homo sapiens, UT7) is > 10000 nM; in assay [2] (Homo sapiens), > 10000 nM; in assay [3] (Homo sapiens, U2OS) it was 0.821 nM.
On to `CCONC(=O)c1cnc(Nc2cc(C)nc(C)n2)cc1Nc1ccc(C#N)cc1N(C)S(C)(=O)=O` [Example 177], for which the IC50 is > 10000 nM in assay [1] (Homo sapiens, UT7); > 10000 nM in assay [2] (Homo sapiens); 1.6 nM in assay [3] (Homo sapiens, U2OS).
On to `CCONC(=O)c1cnc(Nc2nc(C)cs2)cc1Nc1ccc(C2CC2)cc1N(C)S(C)(=O)=O` [Example 157, 4-((4-cyclopropyl-2-(N-methylmethanesulfonamido)phenyl)amino)-N-ethoxy-6-((4-methylthiazol-2-yl)amino)nicotinamide], for which the IC50 in assay [1] (Homo sapiens, UT7) was > 10000 nM; in assay [2] (Homo sapiens), > 10000 nM; in assay [3] (Homo sapiens, U2OS) it was 1.49 nM.
Consider `CONC(=O)c1cnc(Nc2ccc(F)cn2)cc1Nc1ccc(Cl)cc1N(C)S(C)(=O)=O` [Example 80, 4-((4-chloro-2-(N-methylmethanesulfonamido)phenyl)amino)-6-((5-fluoropyridin-2-yl)amino)-N-methoxy nicotinamide], for which the IC50 is > 10000 nM in assay [1], > 10000 nM in assay [2] and 0.961 nM in assay [3].
Regarding `CCONC(=O)c1cnc(Nc2ccnc(C)n2)cc1Nc1cc(F)cc(-c2ncn(C3CC3)n2)c1OC` [Example 245, 4-((3-(1-cyclopropyl-1H-1,2,4-triazol-3-yl)-5-fluoro-2-methoxyphenyl)amino)-N-ethoxy-6-((2-methylpyrimidin-4-yl)amino)nicotinamide], the IC50 in assay [1] (Homo sapiens, UT7) was > 10000 nM; in assay [2] (Homo sapiens), > 10000 nM; in assay [3] (Homo sapiens, U2OS), 1.92 nM.
With `CCONC(=O)c1cnc(Nc2ncc(C)s2)cc1Nc1ccc(C2CC2)cc1N(C)S(C)(=O)=O` [Example 156, 4-((4-cyclopropyl-2-(N-methylmethanesulfonamido)phenyl)amino)-N-ethoxy-6-((5-methylthiazol-2-yl)amino)nicotinamide], the IC50 in assay [1] (Homo sapiens, UT7) is > 10000 nM; in assay [2] (Homo sapiens), > 10000 nM; in assay [3] (Homo sapiens, U2OS) it was 1 nM.
As to `CCONC(=O)c1cnc(Nc2cccc(F)n2)cc1Nc1ccc(C2CC2)cc1N(C)S(C)(=O)=O` [Example 22, 4-((4-cyclopropyl-2-(N-methylmethanesulfonamido)phenyl)amino)-N-ethoxy-6-((6-fluoropyridin-2-yl)amino)nicotinamide], the IC50 in assay [1] (Homo sapiens, UT7) was > 10000 nM; in assay [2] (Homo sapiens), > 10000 nM; in assay [3] (Homo sapiens, U2OS), 0.57 nM.
On to `CCONC(=O)c1cnc(Nc2ccc(F)nc2C)cc1Nc1ccc(C2CC2)cc1N(C)S(C)(=O)=O` [Example 223, 4-((4-cyclopropyl-2-(N-methylmethanesulfonamido)phenyl)amino)-N-ethoxy-6-((6-fluoro-2-methylpyridin-3-yl)amino)nicotinamide], for which the IC50 in assay [1] (Homo sapiens, UT7) is > 10000 nM; in assay [2] (Homo sapiens), > 10000 nM; in assay [3] (Homo sapiens, U2OS), 0.172 nM.
Regarding `[2H]C([2H])([2H])ONC(=O)c1cnc(Nc2cccc(F)n2)cc1Nc1ccc(C2CC2)cc1N(C)S(C)(=O)=O` [Example 68, 4-((4-cyclopropyl-2-(N-methylmethanesulfonamido)phenyl)amino)-6-((6-fluoropyridin-2-yl)amino)-N-(methoxy-d3)nicotinamide], the IC50 in assay [1] (Homo sapiens, UT7) was > 10000 nM; in assay [2] (Homo sapiens), > 10000 nM; in assay [3] (Homo sapiens, U2OS) it was 1.31 nM.
Turning to `CONC(=O)c1cnc(Nc2ccc(F)cn2)cc1Nc1ccc(Cl)cc1N(C)S(C)(=O)=O` [Example 46, 4-((4-chloro-2-(N-methylmethanesulfonamido)phenyl)amino)-6-((5-fluoropyridin-2-yl)amino)-N-methoxy nicotinamide], the IC50 was > 10000 nM in assay [1] (Homo sapiens, UT7); > 10000 nM in assay [2] (Homo sapiens); 1.09 nM in assay [3] (Homo sapiens, U2OS).
